Experimental data from PMC12313074, “Targeting translation initiation yields fast-killing therapeutics against the zoonotic parasite Cryptosporidium parvum” (PLOS Pathogens, 2025).

Experiments:
[1] = target: T1, MDR1 (multi-drug resistance-1) (Homo sapiens, UniProt P08183); assay: cell tolerance (viability) assay, MDR1-overexpressing vs vector HCT-8 cells, reversed by elacridar; format: cell-based
T1 construct: gene ABCB1; transient over-expression from pCMV3-MDR1 in HCT-8 cells

MBP-CpeIF4A = MBP-CpeIF4A (Cryptosporidium parvum, UniProt F0X401 1-405); assay: RNA alone, no ATP, no Roc-A; TSA: 90 mM Na2HPO4, 10 mM NaH2PO4, 2 mM DTT, pH 7.8, 5 uM MBP-CpeIF4A, 20 uM SYPRO Orange; melt 40-70 C at 1 C/min; details: protein: recombinant; tags: N-terminal MBP (pMAL-c5X); label: 6-FAM on 42-nt strand (text says 5' end, printed at 3'); BHQ-1 on 24-nt strand (text says 3', printed at 5'); 5' overhang 18 nt on strand 1, 24 bp duplex

COc1ccc([C@@]23Oc4cc(OC)cc(OC)c4[C@]2(O)[C@H](O)[C@H](C(=O)N(C)C)[C@H]3c2ccccc2)cc1 [Roc-A, Rocaglamide A]
cell tolerance (viability) assay, MDR1-overexpressing vs vector HCT-8 cells, rev [1]: reversed this tolerance in a dose-dependent manner (Fig 1D, bars from 3a to 6b), verifying that Roc-A is an MDR1 substrate

B1: 5'-overhanging duplex RNA (42/24 nt) (dsRNA)
RNA 1: CAUUAUCGGAUAGUGGAACCUAGCUUCGACUAUCGGAUAAUC
RNA 2: GAUUAUCCGAUAGUCGAAGCUAGG
Kd (MBP-CpeIF4A): 1.13 µM
